Experimental data taken from ChEMBL document CHEMBL5223109, “The discovery of BMS-737 as a potent, CYP17 lyase-selective inhibitor for the treatment of castration-resistant prostate cancer” (Bioorg Med Chem Lett, 2022).

Tests used:
[1] = Metabolic stability in human liver microsomes assessed as parent compound remaining relative to control; format: ADME, Microsome
Cytochrome P450 1A2 = target: T1, Cytochrome P450 1A2 (Homo sapiens, UniProt P05177); experiment: Inhibition of CYP1A2 (unknown origin); format: ADME
T1 sequence (P05177 whole entry): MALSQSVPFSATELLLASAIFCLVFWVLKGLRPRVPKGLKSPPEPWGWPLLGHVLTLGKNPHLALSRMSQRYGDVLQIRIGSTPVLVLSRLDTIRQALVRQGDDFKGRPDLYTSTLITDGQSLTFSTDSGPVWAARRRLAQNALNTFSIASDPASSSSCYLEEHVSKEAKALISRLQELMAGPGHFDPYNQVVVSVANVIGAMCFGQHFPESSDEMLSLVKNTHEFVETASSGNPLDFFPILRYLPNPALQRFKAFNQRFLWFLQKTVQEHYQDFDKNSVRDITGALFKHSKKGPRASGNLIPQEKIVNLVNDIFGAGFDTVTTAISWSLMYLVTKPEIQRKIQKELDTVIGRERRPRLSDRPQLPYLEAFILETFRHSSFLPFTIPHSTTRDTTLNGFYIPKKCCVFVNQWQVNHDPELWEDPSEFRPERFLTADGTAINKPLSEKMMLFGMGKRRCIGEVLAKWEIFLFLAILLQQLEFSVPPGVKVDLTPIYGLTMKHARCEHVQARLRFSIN

[2] = target: T2, Steroid 17-alpha-hydroxylase/17,20 lyase (Macaca fascicularis, UniProt Q2XVA1); experiment: Inhibition of cynomolgus monkey CYP17A1; format: ADME
T2 sequence (Q2XVA1 whole entry): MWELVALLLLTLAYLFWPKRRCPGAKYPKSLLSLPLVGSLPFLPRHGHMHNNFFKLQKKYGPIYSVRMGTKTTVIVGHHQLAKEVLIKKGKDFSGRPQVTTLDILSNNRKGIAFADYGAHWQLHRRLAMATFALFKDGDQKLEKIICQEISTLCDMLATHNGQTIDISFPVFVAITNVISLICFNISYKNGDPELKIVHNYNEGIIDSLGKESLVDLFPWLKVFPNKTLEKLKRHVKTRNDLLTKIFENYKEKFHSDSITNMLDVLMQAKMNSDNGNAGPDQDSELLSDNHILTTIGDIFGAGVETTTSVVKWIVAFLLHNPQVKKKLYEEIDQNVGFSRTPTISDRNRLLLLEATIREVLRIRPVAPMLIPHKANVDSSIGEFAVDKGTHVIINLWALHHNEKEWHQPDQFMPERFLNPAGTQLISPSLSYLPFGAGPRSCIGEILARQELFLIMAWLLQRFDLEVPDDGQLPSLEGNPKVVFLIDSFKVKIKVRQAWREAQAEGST

[3] = target: T3, Steroid 17-alpha-hydroxylase/17,20 lyase (Homo sapiens, UniProt P05093); experiment: Inhibition of human adrenal gland CYP17A1; format: ADME, tissue-based
T3 sequence (P05093 whole entry): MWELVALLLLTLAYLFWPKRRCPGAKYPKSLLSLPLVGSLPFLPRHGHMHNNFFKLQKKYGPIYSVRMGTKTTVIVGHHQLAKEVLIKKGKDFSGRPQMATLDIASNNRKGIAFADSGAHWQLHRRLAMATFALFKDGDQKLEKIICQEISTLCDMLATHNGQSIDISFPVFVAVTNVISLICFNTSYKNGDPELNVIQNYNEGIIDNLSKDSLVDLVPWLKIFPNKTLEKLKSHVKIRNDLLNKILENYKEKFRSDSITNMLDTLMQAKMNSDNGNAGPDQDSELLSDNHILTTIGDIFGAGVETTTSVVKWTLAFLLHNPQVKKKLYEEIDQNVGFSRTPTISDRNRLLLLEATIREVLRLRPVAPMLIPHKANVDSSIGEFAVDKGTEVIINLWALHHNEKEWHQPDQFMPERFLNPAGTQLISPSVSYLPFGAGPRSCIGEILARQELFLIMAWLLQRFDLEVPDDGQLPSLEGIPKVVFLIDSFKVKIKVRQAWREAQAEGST

Steroid 21-hydroxylase = target: T4, Steroid 21-hydroxylase (Homo sapiens, UniProt P08686); experiment: Inhibition of human CYP21A2; format: ADME
T4 sequence (P08686 whole entry): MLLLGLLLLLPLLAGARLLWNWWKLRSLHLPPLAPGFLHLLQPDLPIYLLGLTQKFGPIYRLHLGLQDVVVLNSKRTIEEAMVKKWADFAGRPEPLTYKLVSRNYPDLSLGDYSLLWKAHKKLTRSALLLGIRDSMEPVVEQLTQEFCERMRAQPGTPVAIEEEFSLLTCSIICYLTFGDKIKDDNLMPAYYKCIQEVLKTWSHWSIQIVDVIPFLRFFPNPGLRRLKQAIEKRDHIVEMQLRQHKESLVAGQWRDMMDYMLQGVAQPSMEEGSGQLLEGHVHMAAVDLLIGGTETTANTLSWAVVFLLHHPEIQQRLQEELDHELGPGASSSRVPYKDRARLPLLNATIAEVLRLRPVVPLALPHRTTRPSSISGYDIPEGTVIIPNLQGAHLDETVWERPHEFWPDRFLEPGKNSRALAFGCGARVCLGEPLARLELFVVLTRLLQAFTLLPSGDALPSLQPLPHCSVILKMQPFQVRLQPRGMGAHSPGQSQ

[4] = target: T5, Cytochrome P450 11B1, mitochondrial (Homo sapiens, UniProt P15538); experiment: Inhibition of human CYP11B1; format: ADME
T5 sequence (P15538 whole entry): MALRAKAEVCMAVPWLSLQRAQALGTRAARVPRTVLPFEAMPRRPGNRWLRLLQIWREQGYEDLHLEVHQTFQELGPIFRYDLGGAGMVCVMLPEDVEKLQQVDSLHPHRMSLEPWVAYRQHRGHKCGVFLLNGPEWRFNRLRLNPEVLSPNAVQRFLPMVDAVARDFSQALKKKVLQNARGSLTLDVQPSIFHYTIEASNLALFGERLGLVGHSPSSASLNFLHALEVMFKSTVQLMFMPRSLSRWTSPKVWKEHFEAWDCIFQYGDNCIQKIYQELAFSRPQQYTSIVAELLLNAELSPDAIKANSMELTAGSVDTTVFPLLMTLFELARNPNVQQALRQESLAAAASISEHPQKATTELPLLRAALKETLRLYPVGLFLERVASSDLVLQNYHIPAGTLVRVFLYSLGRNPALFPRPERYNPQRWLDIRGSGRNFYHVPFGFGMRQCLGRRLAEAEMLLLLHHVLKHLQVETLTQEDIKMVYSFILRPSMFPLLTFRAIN

[5] = Metabolic stability in human liver microsome assessed as half-life; format: ADME; settings: liver microsomes
[6] = Permeability across basolateral to apical side in human Caco-2 cells; format: ADME, cell-based; settings: read-out: permeability
Cytochrome P450 3A4 = Cytochrome P450 3A4 (Homo sapiens, UniProt P08684); experiment: Induction of recombinant human CYP3A4; format: ADME; settings: recombinant enzyme
Cytochrome P450 3A4, sequence (P08684 whole entry): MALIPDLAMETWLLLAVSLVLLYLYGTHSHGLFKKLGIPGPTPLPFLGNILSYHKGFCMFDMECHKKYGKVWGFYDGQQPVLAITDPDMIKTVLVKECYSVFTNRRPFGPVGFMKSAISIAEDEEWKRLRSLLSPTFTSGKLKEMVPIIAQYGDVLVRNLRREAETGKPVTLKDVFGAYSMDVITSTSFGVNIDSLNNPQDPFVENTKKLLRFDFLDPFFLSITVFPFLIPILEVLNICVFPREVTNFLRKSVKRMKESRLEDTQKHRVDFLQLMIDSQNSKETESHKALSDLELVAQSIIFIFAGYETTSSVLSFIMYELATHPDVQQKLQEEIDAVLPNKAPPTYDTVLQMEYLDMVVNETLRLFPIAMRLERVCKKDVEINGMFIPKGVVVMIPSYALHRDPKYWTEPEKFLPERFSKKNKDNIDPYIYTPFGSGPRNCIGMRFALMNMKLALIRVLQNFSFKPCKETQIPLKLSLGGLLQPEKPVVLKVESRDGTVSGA

[7] = target: T2, Steroid 17-alpha-hydroxylase/17,20 lyase; experiment: In vivo inhibition of CYP17A1 in cynomolgus monkey assessed as decrease in testosterone level in blood at 1 mg/kg, po measured at 8 hrs; format: functional, organism-based
[8] = target: T2, Steroid 17-alpha-hydroxylase/17,20 lyase; experiment: In vivo inhibition of CYP17A1 in cynomolgus monkey assessed as increase in progesterone level in blood at 1 mg/kg, po measured at 4 hrs; format: functional, organism-based
[9] = target: T2, Steroid 17-alpha-hydroxylase/17,20 lyase; experiment: In vivo inhibition of CYP17A1 in cynomolgus monkey assessed as increase in hydroxyprogesterone level in blood at 1 mg/kg, po measured at 4 hrs; format: functional, organism-based

- Stability [1]: 100%
- IC50 (Cytochrome P450 1A2): > 40000 nM
- IC50 [2]: 2 nM
- IC50 [3]: 30 nM
- IC50 (Steroid 21-hydroxylase): > 10000 nM
- IC50 [4]: 2610 nM
- half-life [5]: > 2 h
- Papp B→A [6]: 21.2 ×10⁻⁶ cm/s
- Activity (Cytochrome P450 3A4): Not Active
- Activity [7]: 43 ng/dL
- Activity [8]: 27 ng/dL
- Activity [9]: 7.7 ng/dL
Compound: Nc1ncncc1-c1ccnc2c1cnn2-c1ccc(F)cc1
